Here are results for 26 molecules from patent publication US20090023704A1, “Novel Compounds 737” (ASTRAZENECA AB, priority 2007, published 2009).

The assay concerns the target T1, GABAB receptor (GABABR1a/GABABR2 heterodimer) (Homo sapiens, UniProt O75899+Q9UBS5).
T1 construct: expressed in transfected cells
Put plainly: [35S]-GTPγS binding assay, potency of PAM (GABA dose-response curves with and without test compound). Format: biochemical. To be noted: potency of the positive allosteric modulator; GABA dose-response in presence of test compound. An excerpt:
GABABR1a and GABABR2 were cloned from human brain cDNA and subcloned into pCI-Neo (Promega) and pALTER-1 (Promega), respectively. A GABABR1a-Gαqi5 fusion protein expression vector was constructed using the pCI-Neo-GABABR1a cDNA plasmid and pLEC1-Gαqi5 (Molecular Devices, CA). In order to make the Gαqi5 pertussis toxin insensitive, Cys356 was mutated to Gly using standard PCR methodology with the primers 5′-[…]-3′ (forward) and 5′-GCGGCCG […]-3′ (reverse). The Gαqi5mut cDNA was ligated into the BamHI and NotI sites of pcDNA3.0 (Invitrogen). The GABAB R1a coding sequence was amplified by PCR from pCI-Neo-GABABR1a using the primers, 5′-[…]-3′ (forward) and 5′-[…]-3′ (reverse) and subcloned into the BamHI site of pcDNA3.0-Gαqi5mut.
For generation of a cell line expressing the GABABR1a/GABABR2 heterodimer, GABABR1a plasmid DNA (4 μg) GABABR2 plasmid DNA (4 μg) and lipofectamine (24 μl) were mixed in 5 ml OptiMEM and incubated for 45 minutes at room temperature. The cells were exposed to the transfection medium for 5 hours, which then was replaced with culture medium. The cells were cultured for an additional 10 days before selection agents (300 μg/ml hygromycin and 400 μg/ml geneticin) were added. Twenty-four days after transfection, single cell sorting into 96-well plates by flow cytometry was performed using a FACS Vantage SE (Becton Dickinson, Palo Alto, Calif.). After expansion, the GABAB receptor functional response was tested using the FLIPR assay described below. The clone with the highest functional response was collected, expanded and then subcloned by single cell sorting. The clonal cell line with the highest peak response in the FLIPR was used in the present study.
For generation of a stable cell line expressing GABABR1a-Gαqi5 fusion protein and GABABR2, GABABR1a-Gαqi5mut plasmid DNA (8 μg) GABABR2 plasmid DNA (8 μg) and lipofectamine (24 μl) were mixed in 5 ml OptiMEM and incubated for 45 minutes at room temperature. The cells were exposed to the transfection medium for 5 hours, which then was replaced with culture medium. After forty-eight hours, the cells were detached and seeded in 6 well plates (2000 cells/well) and grown in culture medium supplemented with geneticin (400 μg/ml) and zeocin (250 μg/ml). After 4 days, cells from single colonies were collected and transferred to a 24-well plate. After 10 days, the cell clones were seeded in T-25 flasks and grown for another 16 days before they were tested for GABAB receptor mediated functional response. […] The clonal cell line that gave the highest peak response in the FLIPR was used in the present study.
[^35S]-GTPγS binding assays were performed at 30° C. for 45 min in membrane buffer (100 mM NaCl, 5 mM MgCl2, 1 mM EDTA, 50 mM HEPES, pH 7.4) containing 0.025 μg/μl of membrane protein (prepared from the cell lines described above) with 0.01% bovine serum albumin (fatty acid free), 10 μM GDP, 10 μM DTT and 0.53 nM [^35S]-GTPγS (Amersham-Pharmacia Biotech) in a final volume of 200 μl. Non-specific binding was determined in the presence of 20 μM GTPγS. The reaction was started by the addition of GABA at concentration between 1 mM and 0.1 nM in the presence or absence of the required concentration of PAM. The reaction was terminated by addition of ice-cold wash buffer (50 mM Tris-HCl, 5 mM MgCl2, 50 mM NaCl, pH 7.4) followed by rapid filtration under vacuum through Printed Filtermat A glass fiber filters (Wallac) (0.05% PEI treated) using a Micro 96 Harvester (Skatron Instruments). The filters were dried for 30 min at 50° C., then a paraffin scintillant pad was melted onto the filters and the bound radioactivity was determined using a 1450 Microbeta Trilux (Wallac) scintillation counter.
GABA dose-response curves in the presence and absence of test compounds were constructed using the 4-parameter logistic equation, y=ymax+((ymin−ymax)/1+(x/C)^D), where C=EC50 and D=slope factor.
(GTPγS resists hydrolysis and so accumulates on activated G proteins.)

T1 sequence (Q9UBS5 15-961 limits assumed): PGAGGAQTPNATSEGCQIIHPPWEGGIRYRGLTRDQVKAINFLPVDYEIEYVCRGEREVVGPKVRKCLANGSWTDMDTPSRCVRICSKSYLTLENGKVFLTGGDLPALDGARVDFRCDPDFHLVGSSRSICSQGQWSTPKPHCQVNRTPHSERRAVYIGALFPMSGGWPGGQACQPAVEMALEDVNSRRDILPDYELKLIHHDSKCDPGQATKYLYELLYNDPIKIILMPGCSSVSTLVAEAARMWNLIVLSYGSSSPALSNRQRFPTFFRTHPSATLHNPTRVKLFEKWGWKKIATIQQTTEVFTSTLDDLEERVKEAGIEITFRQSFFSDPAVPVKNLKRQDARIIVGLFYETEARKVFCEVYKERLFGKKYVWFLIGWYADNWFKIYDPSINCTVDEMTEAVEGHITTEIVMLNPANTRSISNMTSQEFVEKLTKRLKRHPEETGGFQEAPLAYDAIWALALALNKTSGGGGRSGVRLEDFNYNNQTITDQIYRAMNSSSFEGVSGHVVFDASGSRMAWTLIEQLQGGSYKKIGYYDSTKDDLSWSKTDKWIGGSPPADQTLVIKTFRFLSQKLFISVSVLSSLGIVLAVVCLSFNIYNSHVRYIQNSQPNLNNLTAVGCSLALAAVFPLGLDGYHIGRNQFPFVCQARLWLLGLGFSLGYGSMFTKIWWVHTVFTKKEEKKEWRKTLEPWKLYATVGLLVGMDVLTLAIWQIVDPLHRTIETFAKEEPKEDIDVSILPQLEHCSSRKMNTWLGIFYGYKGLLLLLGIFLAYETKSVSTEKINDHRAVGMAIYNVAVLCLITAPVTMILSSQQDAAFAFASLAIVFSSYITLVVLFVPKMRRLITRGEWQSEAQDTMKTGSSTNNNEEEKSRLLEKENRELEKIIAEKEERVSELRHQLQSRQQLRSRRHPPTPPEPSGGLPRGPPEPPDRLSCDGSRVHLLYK
T1 sequence (O75899 42-941): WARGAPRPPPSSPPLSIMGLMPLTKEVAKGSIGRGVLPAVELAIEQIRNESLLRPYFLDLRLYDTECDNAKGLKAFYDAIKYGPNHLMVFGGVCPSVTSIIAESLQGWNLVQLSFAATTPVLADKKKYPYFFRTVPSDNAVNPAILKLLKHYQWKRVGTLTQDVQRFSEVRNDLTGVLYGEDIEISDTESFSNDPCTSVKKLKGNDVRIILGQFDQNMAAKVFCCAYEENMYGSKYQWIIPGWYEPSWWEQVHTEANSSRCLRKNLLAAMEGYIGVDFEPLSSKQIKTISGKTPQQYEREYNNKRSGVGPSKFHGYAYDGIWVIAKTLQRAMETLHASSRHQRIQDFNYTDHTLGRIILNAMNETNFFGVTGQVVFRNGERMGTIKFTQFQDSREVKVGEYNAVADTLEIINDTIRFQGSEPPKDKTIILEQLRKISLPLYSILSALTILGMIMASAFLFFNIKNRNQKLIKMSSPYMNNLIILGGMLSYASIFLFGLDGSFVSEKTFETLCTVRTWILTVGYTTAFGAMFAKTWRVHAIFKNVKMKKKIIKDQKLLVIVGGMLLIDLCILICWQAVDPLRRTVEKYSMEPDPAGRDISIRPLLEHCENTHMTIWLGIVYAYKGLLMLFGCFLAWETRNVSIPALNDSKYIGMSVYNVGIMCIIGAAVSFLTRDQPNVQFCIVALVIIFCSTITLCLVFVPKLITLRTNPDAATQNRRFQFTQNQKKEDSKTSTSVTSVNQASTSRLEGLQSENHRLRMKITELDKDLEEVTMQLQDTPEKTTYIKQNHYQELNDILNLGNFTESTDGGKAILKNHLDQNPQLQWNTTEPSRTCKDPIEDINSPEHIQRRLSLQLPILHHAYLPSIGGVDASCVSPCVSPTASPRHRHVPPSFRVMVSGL

Consider `CCCn1c(=O)n(Cc2ccc(Cl)cc2)c(=O)c2c1nc(N(CC)CC)n2C` [Example 89, 1-(4-chlorobenzyl)-8-(diethylamino)-7-methyl-3-propyl-3,7-dihydro-1H-purine-2,6-dione], for which the 50% effective concentration (EC50) is 1.8 µM.
Turning to `CCc1nc2c(c(=O)n(Cc3ccc(Cl)cc3)c(=O)n2Cc2c(-c3ccccc3)noc2C)n1C` [Example 30, 1-(4-chlorobenzyl)-8-ethyl-7-methyl-3-[(5-methyl-3-phenylisoxazol-4-yl)methyl]-3,7-dihydro-1H-purine-2,6-dione], the EC50 was 4.6 µM.
Take `CCc1nc2c(c(=O)n(Cc3ccc(Cl)cc3)c(=O)n2CC(C)C)n1C` [Example 8, 1-(4-Chlorobenzyl)-8-ethyl-3-isobutyl-7-methyl-3,7-dihydro-1H-purine-2,6-dione]: the EC50 came to 2.7 µM.
As for `CCc1nc2c(c(=O)n(Cc3ccc(Cl)cc3)c(=O)n2Cc2scc(S(=O)(=O)C(C)C)c2Cl)n1C` [Example 39, 1-(4-chlorobenzyl)-3-{[3-chloro-4-(isopropylsulfonyl)-2-thienyl]methyl}-8-ethyl-7-methyl-3,7-dihydro-1H-purine-2,6-dione], the EC50 is 1.8 µM.
Take `CCc1nc2c(c(=O)n(Cc3ccc(Cl)cc3)c(=O)n2CC(=O)C(C)(C)C)n1C` [Example 4, 1-(4-Chlorobenzyl)-3-(3,3-dimethyl-2-oxobutyl)-8-ethyl-7-methyl-3,7-dihydro-1H-purine-2,6-dione]: the EC50 came out at 1.6 µM.
For `CCc1nc2c(c(=O)n(Cc3ccc(Cl)cc3)c(=O)n2CC2OCCO2)n1C` [Example 14, 1-(4-Chlorobenzyl)-3-(1,3-dioxolan-2-ylmethyl)-8-ethyl-7-methyl-3,7-dihydro-1H-purine-2,6-dione], the EC50 was 12.3 µM.
For the molecule `CCc1nc2c(c(=O)n(Cc3ccc(Cl)cc3)c(=O)n2C[C@H]2CCC(=O)N2)n1C` [Example 6, 1-(4-Chlorobenzyl)-8-ethyl-7-methyl-3-{[(2R)-5-oxopyrrolidin-2-yl]methyl}-3,7-dihydro-1H-purine-2,6-dione], the 50% effective concentration (EC50) was 16.4 µM.
The result for `CCCn1c(=O)n(Cc2ccc(Cl)cc2)c(=O)c2c1nc(N1CCC[C@H]1CN1CCCC1)n2C` [Example 94, 1-(4-chlorobenzyl)-7-methyl-3-propyl-8-[(2S)-2-(pyrrolidin-1-ylmethyl)pyrrolidin-1-yl]-3,7-dihydro-1H-purine-2,6-dione] reads 9 µM; that for `CCc1nc2c(c(=O)n(Cc3ccc(Cl)cc3)c(=O)n2CCCOC(C)(C)C)n1C` [Example 21, 3-(3-tert-butoxypropyl)-1-(4-chlorobenzyl)-8-ethyl-7-methyl-3,7-dihydro-1H-purine-2,6-dione], 7.2 µM.
`CCc1nc2c(c(=O)n(Cc3ccc(Cl)cc3)c(=O)n2CCCN2CCC3(CC2)OCCO3)n1C` [Example 48, 1-(4-Chlorobenzyl)-3-[3-(1,4-dioxa-8-azaspiro[4.5]dec-8-yl)propyl]-8-ethyl-7-methyl-3,7-dihydro-1H-purine-2,6-dione]: the EC50 was found to be 12.1 µM.
`CCCn1c(=O)n(Cc2cccc(Cl)c2)c(=O)c2c1nc(CC)n2C` [Example 67, 1-(3-Chlorobenzyl)-8-ethyl-7-methyl-3-propyl-3,7-dihydro-1H-purine-2,6-dione]: the EC50 was found to be 15.1 µM.
As to `CCCn1c(=O)n(Cc2ccc(C(=O)c3ccccc3)cc2)c(=O)c2c1nc(CC)n2C` [Example 68, 1-(4-Benzoylbenzyl)-8-ethyl-7-methyl-3-propyl-3,7-dihydro-1H-purine-2,6-dione], the EC50 was found to be 15.7 µM.
The result for `CCc1nc2c(c(=O)n(Cc3ccc(Cl)cc3)c(=O)n2CCO[Si](C)(C)C(C)(C)C)n1C` [Example 29, 3-(2-{[tert-butyl(dimethyl)silyl]oxy}ethyl)-1-(4-chlorobenzyl)-8-ethyl-7-methyl-3,7-dihydro-1H-purine-2,6-dione] reads 8.6 µM; that for `CCc1nc2c(c(=O)n(Cc3ccc(Cl)cc3)c(=O)n2CCC(C)(C)C)n1C` [Example 2, 1-(4-Chlorobenzyl)-3-(3,3-dimethylbutyl)-8-ethyl-7-methyl-3,7-dihydro-1H-purine-2,6-dione], 1.5 µM; that for `CCc1nc2c(c(=O)n(Cc3ccc(Cl)cc3)c(=O)n2Cc2ccc(-n3cccn3)cc2)n1C` [Example 26, 1-(4-chlorobenzyl)-8-ethyl-7-methyl-3-[4-(1H-pyrazol-1-yl)benzyl]-3,7-dihydro-1H-purine-2,6-dione], 3.5 µM.
Take `CCc1nc2c(c(=O)n(Cc3ccc(Cl)c(Cl)c3)c(=O)n2CC[Si](C)(C)C)n1C` [Example 43, 1-(3,4-Dichlorobenzyl)-8-ethyl-7-methyl-3-[2-(trimethylsilyl)ethyl]-3,7-dihydro-1H-purine-2,6-dione]: the EC50 stood at 2.7 µM.
With `CCCn1c(=O)n(Cc2ccc(Cl)cc2)c(=O)c2c1nc(CC)n2CC` [Example 72, 1-(4-Chlorobenzyl)-7,8-diethyl-3-propyl-3,7-dihydro-H-purine-2,6-dione], the EC50 worked out at 8.93 µM.
The result for `CCc1nc2c(c(=O)n(Cc3ccc(Cl)c(Cl)c3)c(=O)n2CC(=O)[C@]23C[C@@H]4C[C@H](C[C@@H](C4)C2)C3)n1C` [Example 42, 3-{2-[(3S,5S,7S)-Adamantan-1-yl]-2-oxoethyl}-1-(3,4-dichlorobenzyl)-8-ethyl-7-methyl-3,7-dihydro-1H-purine-2,6-dione] reads 11.3 µM; that for `CCCn1c(=O)n(Cc2ccc(Cl)cc2)c(=O)c2c1nc(N1CCCCC1)n2C` [Example 85, 1-(4-chlorobenzyl)-7-methyl-8-piperidin-1-yl-3-propyl-3,7-dihydro-1H-purine-2,6-dione], 1.9 µM; that for `CCCn1c(=O)n(Cc2ccc(OCc3ccccc3)cc2)c(=O)c2c1nc(CC)n2C` [Example 56, 1-[4-(Benzyloxy)benzyl]-8-ethyl-7-methyl-3-propyl-3,7-dihydro-1H-purine-2,6-dione], 15 µM.
Turning to `CCCn1c(=O)n(Cc2ccc(OC)cc2)c(=O)c2c1nc(CC)n2C` [Example 69, 8-Ethyl-1-(4-methoxybenzyl)-7-methyl-3-propyl-3,7-dihydro-1H-purine-2,6-dione], the 50% effective concentration (EC50) was determined as 19.7 µM.
For `CCCn1c(=O)n(Cc2ccc(Cl)cc2)c(=O)c2c1nc(CC)n2-c1ccc(F)cc1` [Example 74, 1-(4-Chlorobenzyl)-8-ethyl-7-(4-fluorophenyl)-3-propyl-3,7-dihydro-1H-purine-2,6-dione], the concentration for a half-maximal effect (EC50) was 9.9 µM.
On to `CCCn1c(=O)n(Cc2nc3cc(C(F)(F)F)ccc3s2)c(=O)c2c1nc(CC)n2C` [Example 66, 8-Ethyl-7-methyl-3-propyl-1-{[5-(trifluoromethyl)-1,3-benzothiazol-2-yl]methyl}-3,7-dihydro-1H-purine-2,6-dione], for which the EC50 came out at 17.3 µM.
The result for `CCc1nc2c(c(=O)n(Cc3ccc(Cl)cc3)c(=O)n2Cc2ccc(OC(F)F)cc2)n1C` [Example 19, 1-(4-Chlorobenzyl)-3-[4-(difluoromethoxy)benzyl]-8-ethyl-7-methyl-3,7-dihydro-1H-purine-2,6-dione] reads 3.7 µM.
For the molecule `CCc1nc2c(c(=O)n(Cc3ccc(Cl)c(Cl)c3)c(=O)n2CCCCC2CCCCC2)n1C` [Example 44, 3-(4-Cyclohexylbutyl)-1-(3,4-dichlorobenzyl)-8-ethyl-7-methyl-3,7-dihydro-1H-purine-2,6-dione], the concentration giving a half-maximal response (EC50) stood at 12.5 µM.
`CCCn1c(=O)n(Cc2ccc(Cl)cc2)c(=O)c2c1nc(OC)n2C` [Example 78, 1-(4-Chlorobenzyl)-8-methoxy-7-methyl-3-propyl-3,7-dihydro-1H-purine-2,6-dione]: the EC50 was determined as 4.5 µM.

For orientation: EC50 means the midpoint of the concentration-response curve.
